Experimental data taken from patent publication US20120245137A1 (Zalicus Pharmaceuticals Ltd., priority 2009, published 2012).
Like-named read-outs stand apart in the source and are kept apart here.

Legend:
Format in all cases: cell-based
[1] = biological target: CAv1.2 (Homo sapiens, UniProt Q13936); assay: FLIPR data, CAv1.2 channel blocking (Table 6); conditions: for CAv1.2 IC50 Ratio closed/inact.: ratio closed/inactivated IC50
[2] = biological target: T-type calcium channel (Homo sapiens, UniProt O95180); assay: T-type channel blocking, FLIPR data (Table 6); conditions: for CAv3.2 IC50 Ratio closed/inact.: CAv3.2, ratio closed/inactivated IC50
Excerpt: (§1) Another method, high-throughput spectrophotometric assay, utilizes loading of the cell lines with a fluorescent dye sensitive to intracellular calcium concentration and subsequent examination of the effects of compounds on the ability of depolarization by potassium chloride or other means to alter intracellular calcium levels.

[3] = biological target: T-type calcium channel (Homo sapiens, UniProt O43497); assay: T-type channel blocking, FLIPR data (Table 6); conditions: CAv3.1
Excerpt: as §1

[4] = biological target: Human Cav 2.2 channels (Homo sapiens, UniProt Q00975); assay: Fluorescent assay for CaV2.2 channels using potassium depolarization (VIPR/FLIPR); conditions: FLIPR data; for CAv2.2 IC50 Ratio closed/inact.: ratio closed/inactivated IC50
Summary of the method: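 HEK293 cells stably expressing human Cav2.2 with α2δ and β subunits plus Kir2.3 were loaded with fluo-4 and incubated 30 min at 25 °C with compound in 4, 12, 25 or 30 mM potassium buffer. Channels were opened with 70 mM potassium (final) and calcium influx was read by fluorescence (Ex 480/Em 535 nm).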

[5] = closed state, read-out: CAv1.2 IC50 Closed
[6] = inactivated state, read-out: CAv1.2 IC50 Inact.
[7] = CAv3.2, closed state, read-out: CAv3.2 IC50 Closed
[8] = CAv3.2, inactivated state, read-out: CAv3.2 IC50 Inact.
[9] = closed state, read-out: CAv2.2 IC50 Closed
[10] = inactivated state, read-out: CAv2.2 IC50 Inact.

Chain of Human Cav 2.2 channels (Q00975 whole entry): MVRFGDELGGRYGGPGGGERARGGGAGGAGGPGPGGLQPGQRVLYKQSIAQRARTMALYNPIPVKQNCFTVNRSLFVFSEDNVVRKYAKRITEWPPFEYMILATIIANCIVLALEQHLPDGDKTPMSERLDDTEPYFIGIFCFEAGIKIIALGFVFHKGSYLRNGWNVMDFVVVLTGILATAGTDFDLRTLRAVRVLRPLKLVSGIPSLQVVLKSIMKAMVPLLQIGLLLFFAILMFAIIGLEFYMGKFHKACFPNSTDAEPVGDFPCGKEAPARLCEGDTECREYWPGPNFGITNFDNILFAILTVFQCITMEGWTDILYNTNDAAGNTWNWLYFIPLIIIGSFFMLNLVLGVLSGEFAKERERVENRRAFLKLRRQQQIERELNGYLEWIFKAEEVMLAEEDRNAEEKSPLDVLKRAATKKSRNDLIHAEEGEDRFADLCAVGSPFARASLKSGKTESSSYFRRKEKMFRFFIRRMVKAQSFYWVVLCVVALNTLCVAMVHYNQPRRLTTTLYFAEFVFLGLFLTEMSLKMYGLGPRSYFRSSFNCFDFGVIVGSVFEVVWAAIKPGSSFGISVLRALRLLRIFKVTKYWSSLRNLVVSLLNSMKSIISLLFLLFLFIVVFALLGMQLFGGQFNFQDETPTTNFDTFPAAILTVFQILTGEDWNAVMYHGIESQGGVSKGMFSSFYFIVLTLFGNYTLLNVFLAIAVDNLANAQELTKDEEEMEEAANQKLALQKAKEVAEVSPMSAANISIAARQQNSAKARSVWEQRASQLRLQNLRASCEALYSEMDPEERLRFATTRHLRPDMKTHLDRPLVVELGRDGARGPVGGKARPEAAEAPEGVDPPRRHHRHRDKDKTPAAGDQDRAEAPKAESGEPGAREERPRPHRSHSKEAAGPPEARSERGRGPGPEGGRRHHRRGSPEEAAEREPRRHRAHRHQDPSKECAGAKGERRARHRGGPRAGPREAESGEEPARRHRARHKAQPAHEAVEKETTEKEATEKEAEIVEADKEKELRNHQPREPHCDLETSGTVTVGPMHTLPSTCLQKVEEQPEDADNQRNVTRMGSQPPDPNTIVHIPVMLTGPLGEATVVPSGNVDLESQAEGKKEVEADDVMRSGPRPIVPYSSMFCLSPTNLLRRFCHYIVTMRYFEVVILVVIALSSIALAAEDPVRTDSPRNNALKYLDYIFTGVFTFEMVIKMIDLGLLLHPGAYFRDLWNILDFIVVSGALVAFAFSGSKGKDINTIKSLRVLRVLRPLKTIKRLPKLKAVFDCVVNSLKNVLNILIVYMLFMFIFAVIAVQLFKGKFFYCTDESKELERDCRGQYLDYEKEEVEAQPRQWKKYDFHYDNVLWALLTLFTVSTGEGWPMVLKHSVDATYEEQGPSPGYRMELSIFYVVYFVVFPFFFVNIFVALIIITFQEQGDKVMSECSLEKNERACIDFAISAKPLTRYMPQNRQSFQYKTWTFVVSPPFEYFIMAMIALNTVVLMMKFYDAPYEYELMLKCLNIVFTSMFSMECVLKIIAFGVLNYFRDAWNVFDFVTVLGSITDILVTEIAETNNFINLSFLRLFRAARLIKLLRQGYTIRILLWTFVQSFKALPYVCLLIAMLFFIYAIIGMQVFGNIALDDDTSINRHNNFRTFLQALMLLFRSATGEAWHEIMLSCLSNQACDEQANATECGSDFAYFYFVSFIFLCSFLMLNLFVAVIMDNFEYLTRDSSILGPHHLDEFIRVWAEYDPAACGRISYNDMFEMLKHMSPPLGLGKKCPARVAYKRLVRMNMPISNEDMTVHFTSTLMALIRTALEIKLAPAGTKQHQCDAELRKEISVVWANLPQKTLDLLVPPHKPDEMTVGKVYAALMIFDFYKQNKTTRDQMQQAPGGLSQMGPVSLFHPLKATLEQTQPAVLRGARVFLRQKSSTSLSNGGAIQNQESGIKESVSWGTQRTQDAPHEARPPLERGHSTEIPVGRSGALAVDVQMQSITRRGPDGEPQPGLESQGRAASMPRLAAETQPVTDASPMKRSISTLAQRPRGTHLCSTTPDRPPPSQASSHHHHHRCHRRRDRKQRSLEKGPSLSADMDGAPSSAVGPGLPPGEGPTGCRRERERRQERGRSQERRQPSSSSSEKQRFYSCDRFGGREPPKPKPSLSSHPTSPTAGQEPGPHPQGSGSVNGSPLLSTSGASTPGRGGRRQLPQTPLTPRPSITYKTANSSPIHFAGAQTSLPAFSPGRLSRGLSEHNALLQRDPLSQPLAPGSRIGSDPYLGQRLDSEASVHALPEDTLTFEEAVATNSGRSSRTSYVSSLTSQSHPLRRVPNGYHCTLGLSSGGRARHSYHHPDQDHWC
Chain of Human Cav 2.2 channels (P54289 25-1103 partner): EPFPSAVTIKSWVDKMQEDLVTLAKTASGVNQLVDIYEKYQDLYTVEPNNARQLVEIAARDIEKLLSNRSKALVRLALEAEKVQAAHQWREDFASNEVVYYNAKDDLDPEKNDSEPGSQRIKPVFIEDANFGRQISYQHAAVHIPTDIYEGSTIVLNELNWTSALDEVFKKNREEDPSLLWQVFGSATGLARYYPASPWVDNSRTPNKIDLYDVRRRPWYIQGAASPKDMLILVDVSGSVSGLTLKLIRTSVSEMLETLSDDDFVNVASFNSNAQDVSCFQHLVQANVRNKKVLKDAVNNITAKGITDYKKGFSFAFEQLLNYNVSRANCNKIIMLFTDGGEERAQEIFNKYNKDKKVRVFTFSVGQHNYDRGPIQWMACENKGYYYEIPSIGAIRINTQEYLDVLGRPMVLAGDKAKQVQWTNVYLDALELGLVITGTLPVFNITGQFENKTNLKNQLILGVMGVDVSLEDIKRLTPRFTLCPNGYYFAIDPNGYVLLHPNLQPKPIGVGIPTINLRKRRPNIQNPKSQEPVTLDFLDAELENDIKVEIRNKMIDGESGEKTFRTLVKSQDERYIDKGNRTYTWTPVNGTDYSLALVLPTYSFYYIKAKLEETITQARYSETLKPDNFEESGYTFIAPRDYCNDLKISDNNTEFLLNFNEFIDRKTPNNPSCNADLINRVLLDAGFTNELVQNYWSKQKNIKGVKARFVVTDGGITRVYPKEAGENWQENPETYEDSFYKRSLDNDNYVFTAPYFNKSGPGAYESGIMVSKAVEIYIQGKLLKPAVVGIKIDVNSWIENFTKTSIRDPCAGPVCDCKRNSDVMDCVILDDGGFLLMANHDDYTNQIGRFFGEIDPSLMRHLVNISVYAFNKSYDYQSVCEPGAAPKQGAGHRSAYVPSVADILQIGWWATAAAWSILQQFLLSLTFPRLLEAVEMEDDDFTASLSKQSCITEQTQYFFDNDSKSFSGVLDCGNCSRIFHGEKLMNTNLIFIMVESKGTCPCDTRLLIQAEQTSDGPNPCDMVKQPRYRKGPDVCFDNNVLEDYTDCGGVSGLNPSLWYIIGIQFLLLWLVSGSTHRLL
Chain of Human Cav 2.2 channels (P54284 whole entry partner): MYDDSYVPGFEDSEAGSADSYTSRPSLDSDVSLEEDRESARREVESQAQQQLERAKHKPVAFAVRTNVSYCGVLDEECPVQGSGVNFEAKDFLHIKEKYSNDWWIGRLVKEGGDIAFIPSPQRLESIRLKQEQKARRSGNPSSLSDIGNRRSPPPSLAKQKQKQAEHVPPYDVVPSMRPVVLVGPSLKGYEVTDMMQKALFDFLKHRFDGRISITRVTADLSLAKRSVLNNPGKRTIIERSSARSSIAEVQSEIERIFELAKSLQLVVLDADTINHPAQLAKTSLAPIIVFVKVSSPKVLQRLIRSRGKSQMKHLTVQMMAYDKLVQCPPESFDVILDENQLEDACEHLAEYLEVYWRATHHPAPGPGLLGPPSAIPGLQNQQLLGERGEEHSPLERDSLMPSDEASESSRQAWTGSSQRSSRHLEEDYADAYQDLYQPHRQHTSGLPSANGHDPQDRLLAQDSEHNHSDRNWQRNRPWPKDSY

| SMILES | IC50 [2, 7] [µM] | IC50 [2, 8] [µM] | CAv3.2 IC50 Ratio closed/inact. [2] | IC50 [3] [µM] | IC50 [4, 9] [µM] | IC50 [4, 10] [µM] | CAv2.2 IC50 Ratio closed/inact. [4] | IC50 [1, 5] [µM] | IC50 [1, 6] [µM] | CAv1.2 IC50 Ratio closed/inact. [1] |
| --- | --- | --- | --- | --- | --- | --- | --- | --- | --- | --- |
| CC(C)([C@H]1C[C@H](NC(=O)c2ccnc(C(F)(F)F)n2)C1)S(=O)(=O)c1cccc(OC(F)(F)F)c1 [Compound 635] | 7.63 | 7.84 | 1 | 6.96 | 2 | 0.27 | 7.4 | ≥ 10 | 7.63 | 1.3 |
| CC(C)([C@H]1C[C@H](NC(=O)c2ccc(C(F)(F)F)cc2S(C)(=O)=O)C1)S(=O)(=O)c1cccc(OC(F)(F)F)c1 [Compound 636] | 4.22 | 5.44 | 0.8 | 9.97 | 10 | 0.38 | 26.3 | ≥ 10 | 5.24 | 1.9 |
| CC(C)([C@H]1C[C@H](NC(=O)c2ncc(C(F)(F)F)cc2S(C)(=O)=O)C1)S(=O)(=O)c1cccc(OC(F)(F)F)c1 [Compound 637] | ≥ 10 | 10 | 1 | ≥ 10 | 10 | 0.58 | 17.2 | – | ≥ 10 | – |
| CC(C)S(=O)(=O)c1cc(C(F)(F)F)cnc1C(=O)N[C@H]1C[C@H](C(C)(C)S(=O)(=O)c2cccc(OC(F)(F)F)c2)C1 [Compound 638] | 5.49 | 6.38 | 0.9 | 4.24 | 6.79 | 0.21 | 32.3 | ≥ 10 | 6.11 | 1.6 |
| CC(C)([C@H]1C[C@@H](NC(=O)c2ccnc(C(F)(F)F)n2)C1)S(=O)(=O)c1cccc(OC(F)(F)F)c1 [Compound 642] | 9.61 | 2.81 | 3.4 | 4.07 | 3.09 | 0.63 | 4.9 | ≥ 10 | 8.43 | 1.2 |
| CC(C)([C@H]1C[C@@H](NC(=O)c2ccc(C(F)(F)F)cc2S(C)(=O)=O)C1)S(=O)(=O)c1cccc(OC(F)(F)F)c1 [Compound 643] | 8.38 | 7.16 | 1.2 | 4.17 | 10 | 0.47 | 21.3 | ≥ 10 | 9.25 | 1.1 |
| CC(C)S(=O)(=O)c1cc(C(F)(F)F)cnc1C(=O)N[C@H]1C[C@@H](C(C)(C)S(=O)(=O)c2cccc(OC(F)(F)F)c2)C1 [Compound 645] | 9.97 | 6.08 | 1.6 | 4.69 | 8.49 | 0.24 | 35.4 | ≥ 10 | 6.8 | 1.5 |
| CC(C)([C@H]1C[C@@H](Nc2ccnc(C(F)(F)F)n2)C1)S(=O)(=O)c1cccc(OC(F)(F)F)c1 [Compound 646] | 5.27 | 3.9 | 1.4 | 4.59 | 4.23 | 1.03 | 4.1 | 8 | 2.33 | 3.4 |
| CC(C)([C@H]1C[C@@H](Nc2ccnc(C(F)(F)F)n2)C1)S(=O)(=O)c1cc(F)cc(C(F)(F)F)c1 [Compound 648] | 5.14 | 4.1 | 1.3 | 2.81 | 5.05 | 0.99 | 5.1 | 8.41 | 2.28 | 3.7 |
| CC(C)([C@H]1C[C@H](Nc2ccnc(C(F)(F)F)n2)C1)S(=O)(=O)c1cc(F)cc(C(F)(F)F)c1 [Compound 649] | 2.4 | 2.74 | 0.9 | 3.13 | 4.83 | 1.19 | 4.1 | 6.39 | 1.81 | 3.5 |
| O=S(=O)(c1cc(F)cc(C(F)(F)F)c1)[C@H]1C[C@@H](CNc2ccnc(C(F)(F)F)n2)C1 [Compound 651] | 6.41 | 3.59 | 1.8 | 9.04 | 10 | 3.26 | 3.1 | 9.21 | 3.86 | 2.4 |
| CC(C)([C@H]1C[C@@H](NC(=O)CC2(N)CCCCC2)C1)S(=O)(=O)c1cc(F)cc(C(F)(F)F)c1 [Compound 653] | – | 10 | – | ≥ 10 | 10 | 1.36 | 7.4 | – | ≥ 10 | – |
| CNC1(CC(=O)NCc2ccc(S(=O)(=O)c3cccc(C(F)(F)F)c3)cc2)CCCCC1 [Compound 660] | ≥ 10 | 10 | 1 | ≥ 10 | 3.56 | 0.61 | 5.8 | 7.48 | 4.93 | 1.5 |

The next lines start with results.

| IC50 [2, 7] [µM] | IC50 [2, 8] [µM] | CAv3.2 IC50 Ratio closed/inact. [2] | IC50 [3] [µM] | IC50 [4, 9] [µM] | IC50 [4, 10] [µM] | CAv2.2 IC50 Ratio closed/inact. [4] | SMILES | IC50 [1, 5] [µM] | IC50 [1, 6] [µM] | CAv1.2 IC50 Ratio closed/inact. [1] |
| --- | --- | --- | --- | --- | --- | --- | --- | --- | --- | --- |
| 0.57 | 1.52 | 0.4 | 9.41 | 5.69 | 0.46 | 12.4 | CC(C)([C@H]1C[C@H](NC(=O)c2cc(C(F)(F)F)n[nH]2)C1)S(=O)(=O)c1cccc(OC(F)(F)F)c1 [Compound 632] | ≥ 10 | 3.3 | 3 |
| 0.63 | 0.57 | 1.1 | 2.3 | 2.06 | 0.19 | 10.8 | CC(C)([C@H]1C[C@H](NC(=O)c2ccc(Cl)c(F)c2)C1)S(=O)(=O)c1cccc(OC(F)(F)F)c1 [Compound 633] | 5.74 | 1.18 | 4.9 |
| 0.7 | 0.81 | 0.9 | 1.55 | 2.21 | 0.22 | 10 | CC(C)([C@H]1C[C@H](NC(=O)c2ccc(F)c(Cl)c2)C1)S(=O)(=O)c1cccc(OC(F)(F)F)c1 [Compound 634] | 5.92 | 0.6 | 9.9 |
| 2.58 | 2.55 | 1 | 2.28 | 6.16 | 0.87 | 7.1 | CC(C)([C@H]1C[C@@H](NC(=O)c2cc(C(F)(F)F)n[nH]2)C1)S(=O)(=O)c1cccc(OC(F)(F)F)c1 [Compound 639] | 9.31 | 3.4 | 2.7 |
| 0.7 | 0.92 | 0.8 | 1.26 | 2.49 | 0.4 | 6.2 | CC(C)([C@H]1C[C@@H](NC(=O)c2ccc(Cl)c(F)c2)C1)S(=O)(=O)c1cccc(OC(F)(F)F)c1 [Compound 640] | 4.9 | 1.43 | 3.4 |
| 0.29 | 0.53 | 0.5 | 0.77 | 1.67 | 0.25 | 6.7 | CC(C)([C@H]1C[C@@H](NC(=O)c2ccc(F)c(Cl)c2)C1)S(=O)(=O)c1cccc(OC(F)(F)F)c1 [Compound 641] | 4.11 | 0.69 | 6 |
| 2.99 | 2.59 | 1.2 | 3.27 | 4.17 | 0.86 | 4.8 | CC(C)([C@H]1C[C@H](Nc2ccnc(C(F)(F)F)n2)C1)S(=O)(=O)c1cccc(OC(F)(F)F)c1 [Compound 647] | 6.55 | 1.08 | 6.1 |
| 2.27 | 2.69 | 0.8 | 7.29 | 9.9 | 1.88 | 5.3 | O=S(=O)(c1cccc(OC(F)(F)F)c1)[C@H]1C[C@@H](CNc2ccnc(C(F)(F)F)n2)C1 [Compound 650] | 9.1 | 3.51 | 2.6 |
| 2.94 | 1.53 | 1.9 | 2.01 | 9.19 | 0.87 | 10.6 | CC(C)([C@H]1C[C@H](NS(=O)(=O)c2ccc(C(F)(F)F)cc2)C1)S(=O)(=O)c1cccc(C(F)(F)F)c1 [Compound 663] | ≥ 10 | 2.98 | 3.4 |
